Active and inactive are the calls of the source.
Tests used:
Format in all cases: functional
Wee1-like protein kinase = Wee1-like protein kinase (Homo sapiens, UniProt P30291); experiment: Navigating the Kinome. Panel member name: WEE1
[1] = target: Cell division cycle 7-related protein kinase (Homo sapiens, UniProt O00311);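 further: value obtained from a kinome-wide kinase panel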
[2] = target: Mitogen-activated protein kinase 13 (Homo sapiens, UniProt O15264)
[3] = target: Mast/stem cell growth factor receptor Kit (Homo sapiens, UniProt P10721);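 further: KIT entry within a kinase panel assay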
[4] = target: Glycogen synthase kinase-3 beta (Homo sapiens, UniProt P49841);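 further: value comes from a broad kinome profiling panel, with GSK3B as the panel member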
[5] = target: Serine/threonine-protein kinase pim-1 (Homo sapiens, UniProt P11309)
[6] = target: Interleukin-1 receptor-associated kinase 4 (Homo sapiens, UniProt Q9NWZ3)
[7] = target: cAMP-dependent protein kinase catalytic subunit alpha (Homo sapiens, UniProt P17612)
[8] = target: Mitogen-activated protein kinase kinase kinase kinase 4 (Homo sapiens, UniProt O95819)
[9] = target: Dual specificity protein kinase CLK4 (Homo sapiens, UniProt Q9HAZ1)
[10] = target: Homeodomain-interacting protein kinase 2 (Homo sapiens, UniProt Q9H2X6);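 further: measured within a kinome-wide kinase profiling panel, HIPK2 being one panel member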
[11] = target: Cyclin-dependent kinase 8 (Homo sapiens, UniProt P49336); experiment: Navigating the Kinome. Panel member name: CDK8
[12] = target: Cyclin-dependent kinase 19 (Homo sapiens, UniProt Q9BWU1); experiment: Navigating the Kinome. Panel member name: CDC2L6
[13] = target: Melanin-concentrating hormone receptor 1 (Homo sapiens, UniProt Q99705); experiment: Late-stage fluorescence-based counterscreen for antagonists of the G-protein coupled receptor 7 (GPR7): cell-based dose response assay to identify antagonists of the melanin-concentrating hormone receptor 1 (MCHR1) Set 5.
[14] = target: Neuropeptides B/W receptor type 1 (Homo sapiens, UniProt P48145); experiment: human NPBW1 receptor blockade, IC50 – cell-based, fluorescence, dose response, set 5, late-stage follow-up (AID 588566)
Chain of Neuropeptides B/W receptor type 1 (P48145 whole entry): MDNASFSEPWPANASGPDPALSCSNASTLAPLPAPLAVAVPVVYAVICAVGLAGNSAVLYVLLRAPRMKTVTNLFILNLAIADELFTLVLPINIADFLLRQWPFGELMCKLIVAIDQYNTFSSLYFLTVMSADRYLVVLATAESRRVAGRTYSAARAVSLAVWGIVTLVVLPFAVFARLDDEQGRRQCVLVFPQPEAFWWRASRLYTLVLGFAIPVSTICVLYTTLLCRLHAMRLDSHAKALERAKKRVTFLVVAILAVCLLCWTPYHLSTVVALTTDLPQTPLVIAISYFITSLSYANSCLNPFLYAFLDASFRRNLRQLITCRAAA

Chain of Cell division cycle 7-related protein kinase (O00311 whole entry): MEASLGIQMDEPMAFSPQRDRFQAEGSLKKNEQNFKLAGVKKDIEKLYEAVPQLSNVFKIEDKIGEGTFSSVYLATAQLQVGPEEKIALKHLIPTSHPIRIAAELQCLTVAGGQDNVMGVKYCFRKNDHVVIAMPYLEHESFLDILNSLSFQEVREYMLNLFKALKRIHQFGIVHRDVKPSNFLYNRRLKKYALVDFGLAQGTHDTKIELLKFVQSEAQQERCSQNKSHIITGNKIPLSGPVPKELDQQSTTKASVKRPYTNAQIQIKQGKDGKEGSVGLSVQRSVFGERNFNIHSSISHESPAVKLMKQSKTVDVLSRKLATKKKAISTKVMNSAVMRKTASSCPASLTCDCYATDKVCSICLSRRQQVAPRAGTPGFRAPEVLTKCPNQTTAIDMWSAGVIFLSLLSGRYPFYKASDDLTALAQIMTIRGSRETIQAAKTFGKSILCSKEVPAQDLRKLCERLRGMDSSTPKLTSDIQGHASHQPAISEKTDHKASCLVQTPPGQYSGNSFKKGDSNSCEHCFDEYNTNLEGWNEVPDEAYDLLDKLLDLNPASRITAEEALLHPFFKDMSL
Chain of Interleukin-1 receptor-associated kinase 4 (Q9NWZ3 whole entry): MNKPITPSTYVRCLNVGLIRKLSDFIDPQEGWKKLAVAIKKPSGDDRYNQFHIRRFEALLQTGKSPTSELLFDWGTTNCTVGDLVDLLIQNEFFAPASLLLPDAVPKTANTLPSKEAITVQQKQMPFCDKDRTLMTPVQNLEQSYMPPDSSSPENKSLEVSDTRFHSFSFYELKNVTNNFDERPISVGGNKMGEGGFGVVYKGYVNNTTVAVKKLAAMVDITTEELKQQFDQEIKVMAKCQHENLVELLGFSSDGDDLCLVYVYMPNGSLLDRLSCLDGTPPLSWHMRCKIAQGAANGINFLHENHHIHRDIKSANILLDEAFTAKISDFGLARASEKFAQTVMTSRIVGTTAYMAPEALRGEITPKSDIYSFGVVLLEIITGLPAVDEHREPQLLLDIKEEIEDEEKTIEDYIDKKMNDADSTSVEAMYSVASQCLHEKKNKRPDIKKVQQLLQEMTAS
Chain of Serine/threonine-protein kinase pim-1 (P11309 whole entry): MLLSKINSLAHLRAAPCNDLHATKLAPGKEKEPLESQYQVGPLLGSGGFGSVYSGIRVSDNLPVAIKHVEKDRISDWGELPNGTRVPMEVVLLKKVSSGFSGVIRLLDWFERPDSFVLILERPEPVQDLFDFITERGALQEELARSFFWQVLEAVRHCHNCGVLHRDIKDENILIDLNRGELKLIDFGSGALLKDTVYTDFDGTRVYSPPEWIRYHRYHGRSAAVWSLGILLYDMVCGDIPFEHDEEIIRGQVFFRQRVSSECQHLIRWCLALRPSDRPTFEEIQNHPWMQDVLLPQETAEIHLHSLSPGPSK
Chain of Melanin-concentrating hormone receptor 1 (Q99705 whole entry): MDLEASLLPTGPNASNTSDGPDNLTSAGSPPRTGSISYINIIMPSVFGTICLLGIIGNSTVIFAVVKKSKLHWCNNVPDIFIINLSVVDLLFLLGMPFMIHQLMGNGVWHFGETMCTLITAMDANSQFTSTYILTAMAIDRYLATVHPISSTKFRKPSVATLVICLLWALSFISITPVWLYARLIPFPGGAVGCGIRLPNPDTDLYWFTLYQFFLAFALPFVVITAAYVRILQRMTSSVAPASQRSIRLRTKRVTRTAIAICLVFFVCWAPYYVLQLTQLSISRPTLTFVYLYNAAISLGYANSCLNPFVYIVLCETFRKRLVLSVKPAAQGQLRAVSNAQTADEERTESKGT
Chain of Mast/stem cell growth factor receptor Kit (P10721 whole entry): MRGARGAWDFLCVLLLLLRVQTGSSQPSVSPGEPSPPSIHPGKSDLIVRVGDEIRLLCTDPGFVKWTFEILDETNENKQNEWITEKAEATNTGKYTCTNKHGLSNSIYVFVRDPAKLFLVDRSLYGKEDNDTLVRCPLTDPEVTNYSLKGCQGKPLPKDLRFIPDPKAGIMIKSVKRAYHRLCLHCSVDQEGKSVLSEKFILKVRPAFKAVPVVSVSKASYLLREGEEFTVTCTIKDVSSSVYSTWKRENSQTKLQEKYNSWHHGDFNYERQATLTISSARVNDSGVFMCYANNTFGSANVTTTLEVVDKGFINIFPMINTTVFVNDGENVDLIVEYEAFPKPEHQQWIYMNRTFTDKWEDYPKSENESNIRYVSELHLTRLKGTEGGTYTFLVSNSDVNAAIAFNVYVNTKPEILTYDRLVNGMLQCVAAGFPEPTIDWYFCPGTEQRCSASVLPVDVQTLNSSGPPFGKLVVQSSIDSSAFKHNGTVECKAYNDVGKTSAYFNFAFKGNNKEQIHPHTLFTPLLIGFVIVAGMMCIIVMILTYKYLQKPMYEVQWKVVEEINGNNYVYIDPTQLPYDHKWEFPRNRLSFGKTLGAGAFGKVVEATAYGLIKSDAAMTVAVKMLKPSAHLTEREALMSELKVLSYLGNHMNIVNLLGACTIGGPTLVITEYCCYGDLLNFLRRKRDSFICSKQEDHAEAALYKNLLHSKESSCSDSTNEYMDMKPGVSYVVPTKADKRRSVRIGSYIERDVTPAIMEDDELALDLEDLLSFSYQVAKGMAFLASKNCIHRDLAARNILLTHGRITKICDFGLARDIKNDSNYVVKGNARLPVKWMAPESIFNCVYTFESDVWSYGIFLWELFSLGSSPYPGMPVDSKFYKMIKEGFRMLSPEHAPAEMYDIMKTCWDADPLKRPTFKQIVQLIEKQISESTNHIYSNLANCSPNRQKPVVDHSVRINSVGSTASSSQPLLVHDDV
Chain of Cyclin-dependent kinase 19 (Q9BWU1 whole entry): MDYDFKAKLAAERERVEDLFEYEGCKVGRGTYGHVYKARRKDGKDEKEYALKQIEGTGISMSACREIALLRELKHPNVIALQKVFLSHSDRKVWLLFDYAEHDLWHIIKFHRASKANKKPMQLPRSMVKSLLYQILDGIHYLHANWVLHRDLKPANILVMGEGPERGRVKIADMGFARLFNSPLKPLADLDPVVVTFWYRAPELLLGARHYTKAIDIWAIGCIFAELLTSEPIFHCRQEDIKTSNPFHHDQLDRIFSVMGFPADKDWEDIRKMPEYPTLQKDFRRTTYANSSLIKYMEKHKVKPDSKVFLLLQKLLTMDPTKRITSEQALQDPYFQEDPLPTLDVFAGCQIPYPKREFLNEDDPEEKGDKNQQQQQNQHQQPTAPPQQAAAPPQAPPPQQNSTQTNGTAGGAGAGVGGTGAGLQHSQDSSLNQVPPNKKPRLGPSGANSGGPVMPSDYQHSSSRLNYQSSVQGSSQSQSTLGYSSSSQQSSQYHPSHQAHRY
Chain of Mitogen-activated protein kinase 13 (O15264 whole entry): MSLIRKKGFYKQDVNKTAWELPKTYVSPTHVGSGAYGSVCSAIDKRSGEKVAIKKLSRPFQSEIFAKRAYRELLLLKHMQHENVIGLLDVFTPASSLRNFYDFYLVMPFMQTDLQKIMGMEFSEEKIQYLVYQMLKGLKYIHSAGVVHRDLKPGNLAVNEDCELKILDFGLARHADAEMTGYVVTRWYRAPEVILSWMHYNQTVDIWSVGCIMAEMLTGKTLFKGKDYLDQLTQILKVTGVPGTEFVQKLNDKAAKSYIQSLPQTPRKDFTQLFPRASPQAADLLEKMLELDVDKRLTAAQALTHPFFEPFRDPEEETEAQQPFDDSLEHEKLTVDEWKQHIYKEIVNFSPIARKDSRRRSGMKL
Chain of Dual specificity protein kinase CLK4 (Q9HAZ1 whole entry): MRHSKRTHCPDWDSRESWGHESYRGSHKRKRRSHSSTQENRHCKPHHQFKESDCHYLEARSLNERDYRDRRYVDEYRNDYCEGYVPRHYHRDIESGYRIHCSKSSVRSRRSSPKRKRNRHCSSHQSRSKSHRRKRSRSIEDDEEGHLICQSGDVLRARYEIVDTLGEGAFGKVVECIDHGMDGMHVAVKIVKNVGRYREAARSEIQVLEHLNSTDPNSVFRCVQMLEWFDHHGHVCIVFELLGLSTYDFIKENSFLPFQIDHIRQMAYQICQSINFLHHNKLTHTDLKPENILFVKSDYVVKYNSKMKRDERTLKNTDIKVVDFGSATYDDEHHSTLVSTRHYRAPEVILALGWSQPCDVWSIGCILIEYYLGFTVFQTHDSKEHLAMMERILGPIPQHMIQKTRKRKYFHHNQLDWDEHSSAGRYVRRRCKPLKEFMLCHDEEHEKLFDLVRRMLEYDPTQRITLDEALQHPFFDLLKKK
Chain of Glycogen synthase kinase-3 beta (P49841 whole entry): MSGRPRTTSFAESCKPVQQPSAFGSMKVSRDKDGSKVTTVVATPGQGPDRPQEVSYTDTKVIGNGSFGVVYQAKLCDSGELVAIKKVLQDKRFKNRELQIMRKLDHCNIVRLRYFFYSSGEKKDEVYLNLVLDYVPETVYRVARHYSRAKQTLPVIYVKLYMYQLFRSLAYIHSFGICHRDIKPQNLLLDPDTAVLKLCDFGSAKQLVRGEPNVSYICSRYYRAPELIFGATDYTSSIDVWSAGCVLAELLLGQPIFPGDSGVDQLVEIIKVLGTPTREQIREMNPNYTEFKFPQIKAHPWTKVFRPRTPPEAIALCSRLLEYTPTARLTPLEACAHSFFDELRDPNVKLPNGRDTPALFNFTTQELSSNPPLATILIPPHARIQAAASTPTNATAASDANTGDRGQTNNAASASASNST

c1cc(NC2CCCCC2)nc(Nc2ccc3cn[nH]c3c2)n1
Ki (Wee1-like protein kinase): 1 µM (active)
Ki [1]: 2 µM (active)

COc1cc(-c2nn(C3CCC(N4CCN(C(C)=O)CC4)CC3)c3ncnc(N)c23)ccc1NC(=O)c1cc2ccccc2n1C (stereo unspecified)
Ki [2]: > 7.94 µM (inactive)
Ki [3]: > 1.26 µM (inactive)

NC(=O)c1ccc(Nc2ncnc3[nH]cc(-c4ccccc4)c23)cc1
Ki [4]: 158 nM (active)
Ki [5]: 3.98 µM (active)
Ki [6]: 63.1 nM (active)
Ki [7]: 2 µM (active)
Ki [8]: 39.8 nM (active)
Ki [9]: 10 nM (active)
Ki [10]: 200 nM (active)
Ki [1]: 0.0126 µM (active)

Nc1nsc2cccc(C(=O)Nc3cccc(CNC(=O)Nc4cccc(F)c4)c3)c12
Ki [11]: 3.98 µM (active)
Ki [12]: > 100 µM (inactive)

CCOC(=O)C(c1ccccn1)c1c(Cl)cnn(Cc2cccc3ccccc23)c1=O (stereo unspecified)
IC50 [13]: 17.6 µM (inactive)
IC50 [14]: > 20 µM (inactive)

Source: ChEMBL document CHEMBL1201862, “PubChem BioAssay data set” (2004)
